For experiment [1] the following is noted: phenylalanine-loaded rat; Chemical Abstracts vol. 89, 191755v; cited from earlier work.
Experiment [2] deals with NO synthase. Conditions: background statement; cited from earlier work.
Experiment [3] has as its target T1, inducible human NOS (Homo sapiens, UniProt P35228).
T1 construct: Purification of NOS cytokine-induced human colorectal adenocarcinoma DLD-1 cells; host or cells: DLD-1 cells induced with interferon-gamma, interleukin-6, tumor necrosis factor and interleukin-1beta; 2',5' ADP Sepharose purified
In words: Inhibition of inducible human NOS (citrulline formation), enzyme from cytokine-induced DLD-1 cells. Type of experiment: biochemical. The conditions noted are these: NOS from cytokine-induced DLD-1 cells; 1 μM L-[14C] arginine; pH 7.4; 10 μM FAD, no calmodulin/CaCl2. How it is done:
(§1) NOS was assayed for the formation of citrulline following the procedure of Schmidt et al (PNAS 88 365-369, 1991) with these modifications: 20 mM Hepes, pH 7.4, 10 μg/ml calmodulin, 2.5 mM CaCl2 2.5 mM DTT, 125 μM NADPH 10 μM H4 Biopterin, 0.5 mg/ml BSA, and 1 μM L-[^14 C] arginine (New England Nuclear). Linearity of NOS-catalyzed rate was confirmed prior to kinetic studies that used single time point determination of rate.
Purification of NOS cytokine-induced human colorectal adenocarcinoma DLD-1 cells.
DLD-1 (ATCC No. CCL 221) were grown at 37° C., 5% CO2 in RPMI 1640 medium supplemented with L- glutamin, penicillin, streptomycin, and 10% heat-inactivated fetal bovine serum. Cells were grown to confluency and then the following cocktail of cytokines were added: 100 units/ml interferon-gamma, 200 units/ml interleukin-6, 10 ng/ml tumor necrosis factor, and 0.5 ng/ml interieukin-1β. At 10-24 hr post-induction, cells were harvested by scraping and washed with phosphate-buffered saline. Pelleted cells were stored at -70° C. Purification of the induced NOS was performed at 4° C. Crude extract was prepared by three cycles of freeze/thawing cells in TDGB (20 mM tris pH 7.5, 10% glycerol, 1 mM DTT, 2 μM tetrahydrobiopterin). Extract was applied directly onto a column of 2',5' ADP sepharse (Pharmacia). Resin was sequentially washed with TDGB, 0.5 M NaCl in TDGB, TDGB. NOS was eluted with 2 mM NADPH in TDGB. BSA was immediately added to give a final concentration of 1 mg/ml. NOS could be quick frozen and stored at -70° C. without loss in activity for at least 2 months.
Assay for inducible human NOs.
The formation of citrulline was assayed as described above except that 10 μM FAD was included and calmodulin and CaCl2 were excluded from the assay mix.

Experiment [4] addresses T2, human placental NOS (Homo sapiens, UniProt P29474).
T2 construct: Purification of NOS from human placenta; from tissue; host or cells: fresh human placenta, amnion and chorion removed; ammonium sulfate and 2',5' ADP agarose purified
In words: Inhibition of human placental NOS (citrulline formation). Type of experiment: biochemical. Conditions: 1 μM L-[14C] arginine; pH 7.4; calmodulin, CaCl2. How it is done:
It is noted that the NO synthase isolated from human placenta most probably represents the endothelial constitutive isoenzyme.
Purification of NOS from human placenta.
Amion and chorion were removed from fresh placenta, which was then rinsed with 0.9% NaCl. The tissue was homogenized in a Waring blender in 3 volumes of HEDS buffer (20 mM Hepes pH 7.8, 0.1 mM EDTA, 5 mM DTT, 0.2M sucrose) plus 0.1 mM PMSF.
The homogenate was filtered through cheesecloth and then centrifuged at 1000 g for 20 min. The supernatant was recentrifuged at 27500 g for 30 min. Solid ammonium sulfate was added to the supernatant to give 32% saturation. Precipitated protein was pelleted at 25,000 g and then redissolved in a minimal volume of HEDS buffer plus 0.1 mM PMSF, 10 μg/ml leupeptin and soybean trypsin inhibitor, and 1 μg/ml pepstatin. The redissolved pellet was centrigued at 15000 g for 10 min. To the supernatant was added 1/20 volume of 2',5' ADP agarose resin (Sigma), and the slurry was mixed slowly overnight. In morning, slurry was packed into a column. The resin was sequentially washed with HEDS, 0.5M NaCl in HEDS, HEDS, and then NOS was eluted with 10 mM NADPH in HEDS. The enzyme could be concentrated by ultrafiltration and quick frozen and stored at -70° C. without loss in activity for at least 6 months.
Assay for human placental NOS
as §1

The target of experiment [5] is T3, human brain NOS (Homo sapiens, UniProt P29475).
T3 construct: Purification of NOS from human brain; from tissue; host or cells: frozen human brain; ammonium sulfate, 2',5' ADP-agarose, calmodulin-agarose
The experiment in a line: Inhibition of human brain NOS (citrulline formation). The format is biochemical. The conditions noted are these: Schmidt et al. 1991 procedure, 10 μM tetrahydrobiopterin included. The procedure:
Purification of NOS from human brain
Human brain NOS was prepared using variations of the procedures of Schmidt et al. (PNAS 88 365-369, 1991), Mayer et al. (Fed. Eur. Biochem. Soc. 288 187-191, 1991), and Bredt and Snyder, (PNAS 87 682-685, 1990). Briefly, frozen human brain (1050 gm) was homogenized in cold buffer A (50 mM HEPES, pH 7.5 (pH at RT) and 0.5 mM EDTA, 10 mM DTT, 3.6 L total volume) with a polytron. The mixture was centrifuged at 13,000 g for 1 hour and the supernatant was removed (about 2050 ml). To the supernatant, solid aimmonium sulfate (365 gm, about 30% of saturation) was added and stirred slowly for a total of 30 minutes. The precipitate was pelleted at 13,000 g for 30 minutes and the pellet was resuspended in ~400 mls of buffer A with 4 μM tetrahydrobiopterin, 1 μM FAD (Sigma), 1 μM FMN (Sigma). The solution was centrifuged at 41,000 g for 60 minutes. The supernatant was removed, frozen by pouring into liquid nitrogen, and stored overnight at -70° C. The mixture was thawed and passed through a 2',5' ADP-agarose column (0.4 g swelled in buffer A) at 4 ml/min. The column was washed with 100 ml buffer A, 200 ml buffer A with 500 mM NaCl, 100 ml Buffer A, then 30 ml buffer A with 5 mM NADPH. To the enzyme eluted from the column was added glycerol to 15%, CaCl2 to 1 mM, tetrahydrobiopterin to 10 μM, tween to 0.1% and FAD, FMN to 1 μM each. The enzyme was then passed through a 1 ml calmodulin-agarose column which had been equilibrated in Buffer A, 15% glycerol and 1 mM CaCl2. The column was washed with 15 ml Buffer A, 15% glycerol and 1 mM CaCl2, 15 ml of Buffer A, 15% glycerol and 5 mM EDTA, and then enzyme activity was eluted with 3 ml of Buffer A, 15% glycerol and 5 mM EDTA, 1 M NaCl. To the enzyme was added tetrahydrobiopterin to 10 μM, FAD and FMN to 1 μM, and tween to 0.1%. This solution was concentrated by centriprep-30 to a volume of approximately 500 μl. Human NOS was prepared completely analogously except the calmodulin-agarose column was not used. Enzyme activity was determined as described by Schmidt et al. 1991, except that 10 μM tetrahydrobiopterin was included in the assay.

As for `N=C(N)NCc1ccc(C[C@H](N)C(=O)O)cc1` [4-guanidinomethylphenylalanine], in experiment [1], the “renal excretion of cystine” value is “to some extent” and the “renal excretion of lysine” value is listed as “increased”.

Consider `N=C(N)Nc1ccc(C[C@H](N)C(=O)O)cc1` [4-guanidino phenylalanine], for which, in experiment [1], the “renal excretion of cystine” value is “to some extent” and the “renal excretion of lysine” value is given as “increased”.

On to `CN=C(N)NCCC[C@H](N)C(=O)O` [L-NMMA, L-N-monomethyl-arginine], for which, in experiment [2], the “inhibition of the synthesis of NO from L-arginine” value is recorded as “can be inhibited”; the “selectivity between constitutive and inducible NO synthase” value is given as “non-selective”.

A word on the Ki: it is a measure of affinity in units of concentration, obtained from inhibition or displacement. A lower Ki goes with tighter binding. Consider `CCSC(=N)Nc1cccc(CC(N)C(=O)O)c1` (racemic) [Compound 27, 3-(S-ethylisothioureido)-DL-phenylalanine], for which the Ki in experiment [3] is at most 10 µM; in experiment [4], at most 10 µM; in experiment [5], at most 1 µM.

In the case of `CCSC(=N)Nc1ccccc1CC(N)C(=O)O` (racemic) [Compound 9, 2-(S-ethylisothioureido)-DL-phenylalanine], the Ki was at most 1 µM in experiment [3], at most 0.5 µM in experiment [4] and at most 0.5 µM in experiment [5].

As to `CSC(=N)NCc1ccc(C(N)C(=O)O)s1` (racemic) [Compound 24], the Ki in experiment [3], in experiment [4] and in experiment [5] was over 50 µM throughout.

nitroarginine: in experiment [2], the “selectivity between constitutive and inducible NO synthase” value is listed as “non-selective”.

Turning to `CC(=N)Nc1ccc(CC(N)C(=O)O)s1` (racemic) [Compound 18, 3-(5-(1-iminoethyl)amino)-2-thienyl)-DL-alanine], the Ki in experiment [3] is at most 10 µM; in experiment [4], at most 50 µM; in experiment [5] it was at most 50 µM.

Regarding `C/N=C(/N)Nc1ccccc1CC(N)C(=O)O` (racemic) [Compound 10, 2-(N'-methylguanidino)-DL-phenylalanine], the results for the Ki in experiment [3], in experiment [4] and in experiment [5] were at most 1 µM, at most 0.5 µM and at most 0.5 µM, respectively.

Take `CSC(=N)Nc1ccc(C[C@H](N)C(=O)O)cc1` [Compound 29, 4-(S-methylisothioureido)-L-phenylalanine]: the Ki in experiment [3], in experiment [4] and in experiment [5] was over 50 µM throughout.

Take `CSC(=N)NCc1ccc(CC(N)C(=O)O)s1` (racemic) [Compound 22, 3-(5-((S-methylisothioureido)methyl)-2-thienyl-DL-alanine]: the Ki in experiment [3], in experiment [4] and in experiment [5] was over 50 µM in each case.
